According to US20160318856A1, “Substituted Urea eIF2alpha Kinase Activators” (THE BRIGHAM AND WOMEN'S HOSPITAL, INC., priority 2013, published 2016):
Where two headings read alike, the source gives them in different places.

Experiments:
[1] = system: eIF2α phosphorylation (eIF2•GTP•Met-tRNAi ternary complex; HRI activation); assay: surrogate dual luciferase eIF2α phosphorylation (ternary complex) assay; format: cell-based, human
Excerpt: The dual luciferase expression vector and other plasmids used for these studies were previously described (see, for example, Ziegeler, G. et al. Journal of Biological Chemistry 2010, 285(20), 15408-19). The ternary complex assay, surrogate of eIF2α phosphorylation, has been described elsewhere (see, for example, Chen, T. et al. Nature Chemical Biology 2011, 7(9), 610-6). Briefly, the pBISA vector, which contains seven copies of the tetracycline-regulated transactivator response element (TRE), is flanked on both sides by minimal human cytomegalovirus (CMV) minimal promoters allowing bi-directional transcription and two MCSs (multiple cloning sites). Firefly and renilla luciferases were subcloned into MCS-I and MCS-II, respectively. This plasmid, designated pBISA-DL, transcribes two mRNAs that contain the 90 nucleotide plasmid derived 5′UTR (same sequence in both mRNAs), and the ORF encoding either firefly or renilla luciferase followed by a polyadenylation sequence. This plasmid was further modified by inserting the 5′UTR of ATF-4 mRNA into MCS-I in front of the firefly luciferase mRNA. Transcription from this unit generates an mRNA that contains the firefly luciferase ORF preceded by a 5′UTR composed of 90 nucleotides derived from the plasmid and 267 nucleotides derived from the 5′UTR of ATF-4 mRNA. Transcription from the other unit generates an mRNA that contains the renilla luciferase ORF proceeded only by the 90-nucleotide plasmid-derived sequence in the 5′UTR (pBISA-DL (ATF-4)) (see, for example, Chen, T. et al. Nature Chemical Biology 2011, 7(9), 610-6).
Cells expressing firefly and renilla luciferases were assayed with a dual glow luciferase assay kit, per manufacturer's instruction (Promega Inc., Madison, Wis.). The data calculations were carried out as the ratio of firefly to renilla luciferase signal.
A library of 1900 urea compounds was screened in the surrogate dual luciferase eIF2α phosphorylation (ternary complex) assay. This library was originally assembled and screened for inhibition of sEH by Hammock's group at UC-Davis (see, for example, Chen, T. et al. Nature Chem Biol 2011, 7, 610-616; Ziegeler, G et al. J Biol Chem 2010, 285, 15408-15419). We developed this assay in order to identify compounds that activate HRI, taking advantage of the fact that activated HRI phosphorylates eIF2α thereby reducing the amount of the eIF2•GTP•Met-tRNAi ternary complex that results in inhibition of translation of many mRNAs but paradoxically increases translation of some mRNAs that contain multiple upstream ORF (uORF) in their 5′ untranslated regions (UTRs). In our assay, firefly (F) luciferase mRNA is fused to 5′UTR of activating transcription factor 4 (ATF-4) mRNA that has multiple uORFs while renilla (R) luciferase mRNA is fused to a 5′UTR lacking any uORFs. Compounds that reduce the amount of the ternary complex, such as those activating HRI, would increase F luciferase expression while decreasing the R luciferase expression, resulting in an increased F/R luciferase ratio. To calculate the activity scores, the F/R ratios for every compound-treated wells were normalized to vehicle-treated (DMSO) wells that was arbitrarily set at 1 (F/R=1).

[2] = system: CRL-2813 human melanoma cancer cells; assay: cell proliferation (SRB) assay, CRL-2813; format: cell-based
Procedure: (§1) Cells were seeded in 96-well plates and maintained for 5 days in the presence of 0.5 to 20 μM of individual compound, and cell proliferation was measured by the sulforhodamine B (SRB) assay as described previously (see, for example, Palakurthi, S. S. et al. Cancer Research 2000, 60(11), 2919-2925). Briefly, at the end of a 5-day treatment, cells were fixed in 10% cold trichloroacetic acid. Cell number was estimated by measuring the remaining bound dye of sulforhodamine B after washing. The percentage of growth was calculated by using the equation: 100×[(T−T0)/(C−T0)], where T and C represent the absorbance in treated and control cultures at Day 5, and T0 at time zero, respectively. If T is less than T0, cell death has occurred and can be calculated from 100×[(T−T0)/T0].

[3] = system: Panc-1; assay: cell proliferation (SRB) assay, Panc-1; format: cell-based; settings: Homo sapiens, Table 7
Procedure: as §1
The compounds shown in Table 7 were evaluated using for activation of HRI using the dual luciferase surrogate eIF2α phosphorylation assay (see, for example, Chen, T. et al. Nature Chem Biol 2011, 7, 610-616) and for inhibition of cell proliferation using the SRB assay (see, for example, Palakurthi, S. S. et al. Cancer Res 2000, 60, 2919-2925) as described above.

[4] = Homo sapiens, CRL2813, SRB assay, Table 7, read-out: IC50 CRL-2813
[5] = cell proliferation assay, Table 2, cell line not named, read-out: IC50

Row | Compound | maximal fold induction ([1]; Homo sapiens, DMSO = 1, maximum tested concentration 20 μM, read-out: Emax: Maximum activity of compound expressed as fold over vehicle) | C3X: Calculated concentration of compound that will cause three-fold increase in the surrogate eIF2α phosphorylation assay ([1]; Table 7) [µM] | IC50 [2, 4] [µM] | IC50 [3] [µM] | Emax (F/R) ([1]; 7.5 μM compound) | Emax (F/R) ([1]; 15 μM compound) | Emax (F/R) ([1]; 30 μM compound) | IC50 [2, 5] [µM]
1 | O=C(Nc1cccc(OC(F)(F)F)c1)N[C@H]1CC[C@H](Oc2ccc(OC(F)(F)F)cc2)CC1 | 14 | 1.3 | 1.2 | 3 | – | – | – | –
2 | N#Cc1ccc(NC(=O)N[C@H]2CC[C@H](Oc3ccc(C#N)cc3)CC2)cc1 | – | – | 10 | 10 | – | – | – | –
3 | N#Cc1ccc(O[C@H]2CC[C@H](NC(=O)Nc3cccc(C#N)c3)CC2)cc1 | – | – | 7 | > 10 | – | – | – | –
4 | O=C(Nc1cccc(Br)c1)N[C@H]1CC[C@H](OCc2c(F)cccc2F)CC1 [II-3m] | – | – | – | – | 1.07 | 1.04 | 0.98 | > 20
5 | O=C(Nc1ccccc1Br)N[C@H]1CC[C@H](OCc2c(F)cccc2F)CC1 [II-3o] | – | – | – | – | 0.96 | 0.99 | 0.96 | > 20
6 | O=C(Nc1ccc(Br)cc1)N[C@H]1CC[C@H](OCc2c(F)cccc2F)CC1 [II-3p] | – | – | – | – | 0.76 | 0.85 | 0.73 | > 20
7 | O=C(Nc1cccc(I)c1)N[C@H]1CC[C@H](OCc2c(F)cccc2F)CC1 [II-4m] | – | – | – | – | 0.69 | 0.75 | 0.72 | > 20
8 | O=C(Nc1ccccc1I)N[C@H]1CC[C@H](OCc2c(F)cccc2F)CC1 [II-4o] | – | – | – | – | 0.81 | 0.74 | 0.81 | > 20
9 | O=C(Nc1ccc(I)cc1)N[C@H]1CC[C@H](OCc2c(F)cccc2F)CC1 [II-4p] | – | – | – | – | 0.76 | 0.82 | 0.67 | > 20
10 | O=C(Nc1cccc(C(F)(F)F)c1)N[C@H]1CC[C@H](OCc2c(F)cccc2F)CC1 [II-5m] | – | – | – | – | 1.13 | 1.15 | 1.11 | > 20
11 | O=C(Nc1ccccc1C(F)(F)F)N[C@H]1CC[C@H](OCc2c(F)cccc2F)CC1 [II-5o] | – | – | – | – | 0.95 | 0.80 | 0.64 | > 20
12 | O=C(Nc1ccc(C(F)(F)F)cc1)N[C@H]1CC[C@H](OCc2c(F)cccc2F)CC1 [II-5p] | – | – | – | – | 0.91 | 0.79 | 0.85 | > 20
13 | O=C(Nc1ccccc1OC(F)(F)F)N[C@H]1CC[C@H](OCc2c(F)cccc2F)CC1 [II-6o] | – | – | – | – | 0.93 | 0.93 | 0.76 | > 20
14 | O=C(Nc1ccc(OC(F)(F)F)cc1)N[C@H]1CC[C@H](OCc2c(F)cccc2F)CC1 [II-6p] | – | – | – | – | 0.81 | 0.80 | 0.98 | > 20
15 | Cc1cccc(NC(=O)N[C@H]2CC[C@H](OCc3c(F)cccc3F)CC2)c1 [II-7m] | – | – | – | – | 0.82 | 0.89 | 0.81 | > 20
